# Results as given in US8435928B2, “Herbicidal composition” (Ishihara Sangyo Kaisha, Ltd., priority 2007, dated 2013).
# Tests used:
# [1] = tested on: crabgrass; experiment: Test Example 9: foliar application of compound No. 2-39 wettable powder with surfactant, crabgrass; format: in vivo, Digitaria sanguinalis L.; conditions: 15 g a.i./ha wettable powder, 21st day
# Description: (§1) On the 21st day after the application, the state of growth of the plants was visually observed (growth inhibition rate (%)=0 (the same as the untreated plot) to 100 (complete kill)), and the results as shown in Tables b1 and b2 were obtained.
# (§2) Upland field soil was put into a 1/1,000,000 ha pot, and seeds of crabgrass were sown and grown in a greenhouse. When crabgrass reached 4.0 to 4.5 leaf stage, a prescribed amount (15 g a.i./ha) of a wettable powder comprising compound No. 2-39 as an active ingredient, prepared in accordance with the above Example 1, was diluted with water corresponding to 300 L/ha (containing 0.05 vol % of a surfactant containing the POA alkyl ether phosphate), followed by foliar application. Further, for comparison, foliar application was carried out in the same manner by using SILWETT L-77 at a concentration of 0.1 vol % instead of the above surfactant.
# On the 21st day after the application, the state of growth of the plant was evaluated in the same manner as in Test Example 1, and the results as shown in Table b13 were obtained.
# [2] = tested on: crabgrass (Digitaria sanguinalis L.); experiment: Test Example 1: foliar application of compound No. 1 wettable powder with surfactant, visual growth inhibition, crabgrass; format: in vivo; conditions: 15 g a.i./ha wettable powder, 21st day
# Experimental: (§3) Upland field soil was put into a 1/1,000,000 ha pot, and seeds of crabgrass (Digitaria sanguinalis L.) and velvetleaf (Abutilon theophrasti L.) were respectively sown and grown in a greenhouse. When crabgrass reached 4.2 to 5.0 leaf stage and velvetleaf reached 3.5 to 4.3 leaf stage, a prescribed amount (15 g a.i./ha) of a wettable powder comprising compound No. 1 as an active ingredient, prepared in accordance with the above Example 1, was diluted with water corresponding to 300 L/ha (containing 0.05 vol % of a surfactant containing the POA alkyl ether phosphate), followed by foliar application (the present invention). Further, for comparison, foliar application was carried out in the same manner by using an alkylaryl polyglycol ether surfactant (tradename: CITOWETT) at a concentration of 0.1 vol %, instead of the above surfactant (comparison).
# as §1
# [3] = tested on: velvetleaf (Abutilon theophrasti L.); experiment: Test Example 1: foliar application of compound No. 1 wettable powder with surfactant, visual growth inhibition, velvetleaf; format: in vivo; conditions: 15 g a.i./ha wettable powder, 21st day
# Experimental: as §3, §1
# [4] = tested on: velvetleaf (Abutilon theophrasti L.); experiment: Test Example 4: foliar application of compound No. 2-27 wettable powder with surfactant, velvetleaf; format: in vivo; conditions: 7 g a.i./ha wettable powder, 21st day
# Experimental: as §3, §1
# (§4) The results as shown in Tables b6 and b7 were obtained in the same manner as in the above Test Example 1 except that a prescribed amount (15 g a.i./ha or 7 g a.i./ha) of a wettable powder comprising compound No. 2-27 as an active ingredient, prepared in accordance with the above Example 4, was used.
# [5] = tested on: crabgrass (Digitaria sanguinalis L.); experiment: Test Example 4: foliar application of compound No. 2-27 wettable powder with surfactant, crabgrass; format: in vivo; conditions: 15 g a.i./ha wettable powder, 21st day
# Experimental: as §3, §1, §4
# [6] = tested on: crabgrass; experiment: Test Example 11: foliar application of compound No. 4-3 wettable powder with surfactant, crabgrass; format: in vivo, Digitaria sanguinalis L.; conditions: 15 g a.i./ha wettable powder, 21st day
# Description: as §1
# as §2, with “5.0” for “4.5”, “4-3” for “2-39”, “L-77 (tradename)” for “L-77”
# On the 21st day after the application, the state of growth of the plant was evaluated in the same manner as in Test Example 1, and the results as shown in Table b16 were obtained.
# [7] = tested on: crabgrass (Digitaria sanguinalis L.); experiment: Test Example 2: foliar application of compound No. 53 suspension concentrate with surfactant, crabgrass; format: in vivo; conditions: 15 g a.i./ha water-based suspension concentrate, 21st day
# Experimental: as §3, §1
# (§5) The results as shown in Tables b3 and b4 were obtained in the same manner as the above Test Example 1 except that a prescribed amount (15 g a.i./ha) of a water-based suspension concentrate comprising compound No. 53 as an active ingredient, prepared in accordance with the above Example 2, was used.
# [8] = tested on: velvetleaf (Abutilon theophrasti L.); experiment: Test Example 2: foliar application of compound No. 53 suspension concentrate with surfactant, velvetleaf; format: in vivo; conditions: 15 g a.i./ha water-based suspension concentrate, 21st day
# Experimental: as §3, §1, §5
# [9] = tested on: crabgrass; experiment: Test Example 3: foliar application of compound No. 238 suspension concentrate with surfactant, crabgrass; format: in vivo, Digitaria sanguinalis L.; conditions: 30 g a.i./ha water-based suspension concentrate, 21st day
# Description: On the 21st day after the application, the state of growth of the plants was visually observed (growth inhibition rate (%)=0 (the same as the untreated plot) to 100 (complete kill)), and the results as shown in Tables b1 and b2 were obtained. Upland field soil was put into a 1/1,000,000 ha pot, and seeds of crabgrass were sown and grown in a greenhouse. When crabgrass reached 4.5 to 5.0 leaf stage, a prescribed amount (30 g a.i./ha) of a water-based suspension concentrate comprising compound No. 238 as an active ingredient, prepared in accordance with the above Example 6, was diluted with water corresponding to 300 L/ha (containing 0.05 vol % of a surfactant containing the POA alkyl ether phosphate), followed by foliar application. Further, for comparison, foliar application was carried out in the same manner by using CITOWETT (tradename) at a concentration of 0.3 vol %, instead of the above surfactant. On the 21st day after the application, the state of growth of the plant was evaluated in the same manner as in Test Example 1, and the results as shown in Table b5 were obtained.
# [10] = tested on: crabgrass; experiment: Test Example 6: foliar application of compound No. 238 suspension concentrate with surfactant and optional oil or emulsifying agent, crabgrass; format: in vivo, Digitaria sanguinalis L.; conditions: 7 g a.i./ha suspension concentrate, ADEKA COL PS-440E 0.03 vol %, 20th day
# Description: as §1
# Upland field soil was put into a 1/1,000,000 ha pot, and seeds of crabgrass were sown and grown in a greenhouse. When crabgrass reached 3.8 to 4.1 leaf stage, a prescribed amount (7 g a.i./ha) of a water-based suspension concentrate comprising compound No. 238 as an active ingredient, prepared in accordance with the above Example 3, was diluted with water corresponding to 300 L/ha (containing 0.03 vol % of a surfactant containing the POA alkyl ether phosphate and optionally having 0.03 vol % of a fatty acid ester, a hydrocarbon solvent or an emulsifying agent added), followed by foliar application. The fatty acid ester used here was AGNIQUE Me 18RD-F (tradename), the hydrocarbon solvent was Solvesso 150 (tradename) and the emulsifying agent was a mixture of a polyoxyethylene sorbitol tetraoleate, a polyoxyethylene castor oil and calcium dodecylbenzene sulfonate.
# On the 20th day after the application, the state of growth of the plant was evaluated in the same manner as in Test Example 1, and the results as shown in Table b9 were obtained.
# [11] = surfactant ADECA COL PS-440E 0.05 vol %, present invention
# [12] = surfactant NIKKOL DDP-8 0.05 vol %, present invention
# [13] = surfactant PHOSPHANOL RS-410 0.05 vol %, present invention
# [14] = surfactant SILWETT L-77 0.1 vol %, comparison
# [15] = surfactant CITOWETT 0.1 vol %, comparison
# [16] = surfactant PLYSURF A219B 0.05 vol %, present invention
# [17] = surfactant NIKKOL TDP-8 0.05 vol %, present invention
compound,measurement,setting,value
CCOCc1c(S(C)(=O)=O)ccc(C(=O)c2cnn(C)c2O)c1C [2-39],Growth inhibition rate (%) of crabgrass,[1]; [11],93%
same,Growth inhibition rate (%) of crabgrass,[1]; [12],93%
same,Growth inhibition rate (%) of crabgrass,[1]; [13],70%
same,Growth inhibition rate (%) of crabgrass,[1]; [14],20%
CCSC(=O)Oc1c(C(=O)c2ccc(S(C)(=O)=O)c(C(=O)OC)c2C)cnn1C [Compound No. 1],Growth inhibition rate (%) of crabgrass,[2]; [11],70%
same,Growth inhibition rate (%) of crabgrass,[2]; [15],50%
same,Growth inhibition rate (%) of crabgrass,[2]; [12],73%
same,Growth inhibition rate (%) of crabgrass,[2]; [16],60%
same,Growth inhibition rate (%) of velvetleaf,[3]; [11],93%
same,Growth inhibition rate (%) of velvetleaf,[3]; [15],73%
same,Growth inhibition rate (%) of velvetleaf,[3]; [12],93%
same,Growth inhibition rate (%) of velvetleaf,[3]; [16],90%
COCCOc1c(S(C)(=O)=O)ccc(C(=O)c2cnn(C)c2O)c1C [Compound No. 2-27],Growth inhibition rate (%) of velvetleaf,[4]; [11],80%
same,Growth inhibition rate (%) of velvetleaf,[4]; [15],63%
same,Growth inhibition rate (%) of velvetleaf,[4]; [12],95%
same,Growth inhibition rate (%) of velvetleaf,[4]; [16],70%
same,Growth inhibition rate (%) of crabgrass,[5]; [11],90%
same,Growth inhibition rate (%) of crabgrass,[5]; [15],78%
same,Growth inhibition rate (%) of crabgrass,[5]; [12],90%
same,Growth inhibition rate (%) of crabgrass,[5]; [16],94%
CCOC(=O)OC(C)Oc1c(C(=O)c2ccc(S(C)(=O)=O)c(OCCOC)c2C)cnn1CC (centres unmarked) [Compound No. 4-3],Growth inhibition rate (%) of crabgrass,[6]; [11],83%
same,Growth inhibition rate (%) of crabgrass,[6]; [12],80%
same,Growth inhibition rate (%) of crabgrass,[6]; [17],85%
same,Growth inhibition rate (%) of crabgrass,"[6]; surfactant PHOSPHANOL ML-240 0.05 vol %, present invention",90%
same,Growth inhibition rate (%) of crabgrass,[6]; [13],80%
same,Growth inhibition rate (%) of crabgrass,"[6]; surfactant PHOSPHANOL RS-710 0.05 vol %, present invention",80%
same,Growth inhibition rate (%) of crabgrass,"[6]; surfactant PHOSPHOLAN PS-236 0.05 vol %, present invention",80%
same,Growth inhibition rate (%) of crabgrass,[6]; [16],98%
same,Growth inhibition rate (%) of crabgrass,[6]; [14],55%
CCSC(=O)Oc1c(C(=O)c2ccc(S(C)(=O)=O)c(OCCOC)c2C)cnn1C [Compound No. 53],Growth inhibition rate (%) of crabgrass,[7]; [11],90%
same,Growth inhibition rate (%) of crabgrass,[7]; [15],50%
same,Growth inhibition rate (%) of crabgrass,[7]; [12],90%
same,Growth inhibition rate (%) of crabgrass,[7]; [16],78%
same,Growth inhibition rate (%) of velvetleaf,[8]; [11],93%
same,Growth inhibition rate (%) of velvetleaf,[8]; [15],78%
same,Growth inhibition rate (%) of velvetleaf,[8]; [12],98%
same,Growth inhibition rate (%) of velvetleaf,[8]; [16],90%
COCCOc1c(S(C)(=O)=O)ccc(C(=O)c2cnn(C)c2OC(=O)SC(C)(C)C)c1C [Compound No. 238],Growth inhibition rate (%) of crabgrass,"[9]; surfactant ADEKA COL PS-440E 0.05 vol %, present invention",75%
same,Growth inhibition rate (%) of crabgrass,"[9]; surfactant CITOWETT 0.3 vol %, comparison",50%
same,Growth inhibition rate (%) of crabgrass,[9]; [12],90%
same,Growth inhibition rate (%) of crabgrass,[9]; [17],90%
same,Growth inhibition rate (%) of crabgrass,"[9]; surfactant PHOSPHANOL RS710 0.05 vol %, present invention",80%
same,Growth inhibition rate (%) of crabgrass,[9]; [16],90%
same,Growth inhibition rate (%) of crabgrass,[10]; fatty acid ester and emulsifying agent added,83%
same,Growth inhibition rate (%) of crabgrass,"[10]; fatty acid ester, hydrocarbon solvent and emulsifying agent added",85%
same,Growth inhibition rate (%) of crabgrass,[10]; hydrocarbon solvent and emulsifying agent added,83%
same,Growth inhibition rate (%) of crabgrass,"[10]; no fatty acid ester, hydrocarbon solvent or emulsifying agent",73%
